Among the data in PubChem BioAssay (NCI) are TGI values, retold here.

Holding throughout (experiment): NCI tumour cell line growth inhibition, 48 h
Assay [1] has as its system HCC-2998 colon.
The test system of assay [2] is COLO 205 colon.
Assay [3] deals with HT29 colon.
Assay [4] relates to SF-295 CNS.
For assay [5], the system named is CAKI-1 renal.
Assay [6] relates to OVCAR-4 ovarian.
The test system of assay [7] is NCI-H460 lung.
Assay [8] concerns 786-0 renal.
Assay [9] relates to SNB-75 CNS.
Assay [10] concerns SW-620 colon.
The test system of assay [11] is HCT-116 colon.
In assay [12] the test system is MDA-MB-435.
The test system of assay [13] is LOX IMVI melanoma.
The test system of assay [14] is SK-MEL-2 melanoma.
In assay [15] the test system is RPMI-8226 leukemia.
The subject of assay [16] is PC-3 prostate.

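Values below derive from 48-hour exposures of cells grown in 96-well plates, with endpoints linearly interpolated between the two concentrations bracketing the appropriate inhibition level. TGI: concentration producing complete growth inhibition.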 Where only a bound is given, the exact number is not on record here.

As to `CC(=O)/C(=C/N1C(=O)CC(=O)NC1=S)C(=O)Nc1ccccc1C`, the TGI in [1] was 84.7 µM; in assay [2], greater than 100 µM; in assay [3], 53.5 µM; in [4], greater than 100 µM; in assay [5] it was greater than 100 µM; in assay [6] it was greater than 100 µM. For the same molecule, the TGI was greater than 100 µM in [7]; 50.8 µM in assay [8]; greater than 100 µM in assay [9]; 93.9 µM in assay [10]; greater than 100 µM in assay [11]; greater than 100 µM in assay [12]. Besides, the TGI in assay [13] and in [14] was greater than 100 µM throughout.
Consider `CC(C)C1=CC(=O)C(C)(C2=NC(C)(C)CO2)c2ccccc21` (stereo unspecified), for which the TGI in [15], in [2], in assay [3], in assay [4], in [5] and in assay [6] was greater than 100 µM in each case. The TGI in [7], in assay [8], in [9], in [10], in assay [11] and in [14] was greater than 100 µM each time.
For `CCOC(=O)Cc1nc2nn(Cc3ccccc3)cc2c(=O)[nH]1`, the TGI in assay [1], in [15], in assay [2], in assay [3], in [4] and in assay [5] was greater than 100 µM each time. Also, the TGI in assay [6], in assay [7], in assay [8], in assay [9], in [10] and in assay [11] was greater than 100 µM throughout. The TGI in assay [12] and in assay [13] was greater than 100 µM each time.
Take `Cc1cccc(NC(=O)CSc2nnc(Cc3ccccc3)o2)c1`: the TGI in assay [1], in assay [2], in assay [3], in assay [4], in assay [5] and in [6] was greater than 100 µM in each case. Moreover, the TGI in [7], in [8], in assay [9], in [10], in assay [11] and in [13] was greater than 100 µM throughout. The molecule further displayed a TGI in assay [14] greater than 100 µM.
Consider `CN=C1Nc2ccccc2C(=S)N2CSC[C@@H]12`, for which the TGI in [1], in assay [15], in [2], in [3], in assay [4] and in assay [5] was greater than 100 µM throughout. Also, the TGI in [6], in assay [16], in assay [7], in assay [8], in [10] and in [11] was greater than 100 µM throughout. The TGI in assay [12] and in assay [14] was greater than 100 µM throughout.
Turning to `O=C(/C=C(\O)C(=O)O)/C=C(\O)c1ccccc1Cl`, the TGI in assay [1], in assay [15], in assay [2], in assay [3], in assay [4] and in [5] was greater than 100 µM throughout. Besides, the TGI in assay [6], in assay [7], in assay [8], in assay [9], in assay [10] and in assay [11] was greater than 100 µM each time. The TGI in [13] and in [14] was greater than 100 µM each time.
As to `CC(C)CC(NC(=O)OCc1ccccc1)C(=O)NCCCCC(N)C(=O)NC(CCCCNC(=O)C(CC(C)C)NC(=O)OCc1ccccc1)C(=O)NC(CCCCNC(=O)C(CC(C)C)NC(=O)OCc1ccccc1)C(=O)NC(CCCCNC(=O)C(CC(C)C)NC(=O)OCc1ccccc1)C(=O)NC(CCCCNC(=O)C(CC(C)C)NC(=O)OCc1ccccc1)C(=O)NC(CCCCNC(=O)C(CC(C)C)NC(=O)OCc1ccccc1)C(=O)O` (stereo unspecified), the TGI in assay [1], in assay [15], in assay [3], in [6], in assay [16] and in assay [7] was greater than 100 µM throughout. Besides, the TGI in assay [8], in assay [10], in assay [11], in assay [12], in [13] and in assay [14] was greater than 100 µM throughout.
With `CCCCC1(OC(=O)CCC(=O)O)CCC2(CCC(C)C(C/C=C(C)/C=C/C(O)C(C)/C=C/C(=O)O)O2)OC1CC/C(C)=C/C(=O)O` (stereo unspecified), the TGI in [1] was 9.98 µM; in [15] it was greater than 37.3 µM; in assay [2], 35.1 µM; in [3], 43.6 µM; in assay [4], 15.8 µM; in assay [5], 15.3 µM. The TGI in assay [6] was 7.78 µM; in assay [7], 18.4 µM; in assay [8] it was 14.3 µM; in [9], 6.74 µM; in assay [10], 39.8 µM; in assay [11], greater than 50.4 µM. For the same molecule, the results for the TGI in assay [13] and in [14] were 3.27 µM and 3.18 µM, respectively.
Take `CC1=C(N(C)C)C(=O)c2nc3n(c2C1=O)CCC3OC(N)=O` (stereo unspecified): the TGI is 34.7 µM in assay [1]; greater than 100 µM in [15]; 33.1 µM in assay [2]; 35.6 µM in assay [3]; 28.5 µM in assay [4]; 33.1 µM in assay [5]. The TGI was determined as 34.7 µM in assay [6]; 30.4 µM in assay [7]; 31.6 µM in assay [8]; 42.5 µM in assay [9]; 33.6 µM in assay [10]; 28.8 µM in assay [11]. Besides, the figures for the TGI in assay [13] and in [14] were 25.7 µM and 29.8 µM, respectively.
